Experimental data published in BindingDB's records for doi:10.7270/Q2H70D5W (University of Pittsburgh, 2007).

Each molecule was assayed against Gag-Pol polyprotein (Human immunodeficiency virus type 1 group M subtype B (isolate HXB2), UniProt P04585) (assay: HIV-1 RT RNase H inhibitor potency, dose response, biochemical, probe assessment (AID 652)). Conditions: pH 8; 23 °C.
In the case of `Cc1nc(C)c(C(=O)Nc2nc3c(C)cccc3s2)o1` [2,4-dimethyl-N-(4-methyl-1,3-benzothiazol-2-yl)-1,3-oxazole-5-carboxamide], the IC50 is reported as 1.49 µM.
`CC(C)Cc1cc(C(=O)Nc2sc3c(c2C#N)CCCC3)no1` [MLS000116410] showed an IC50 of 4.76 µM.
Molecule `N#Cc1c(NC(=O)c2ccc(Cn3cc(Br)cn3)o2)sc2c1CCCCCC2` [5-[(4-bromanylpyrazol-1-yl)methyl]-N-(3-cyano-4,5,6,7,8,9-hexahydrocycloocta[b]thiophen-2-yl)furan-2-carboxamide] has an IC50 of 1.38 µM.
`CCOC(=O)c1c(N)sc2c1CCC1C(=O)N(C3CCCCC3)C(=O)C21` (stereo unspecified) [2-amino-7-cyclohexyl-6,8-diketo-4,5,5a,8a-tetrahydrothien[2,3-e]isoindole-3-carboxylic acid ethyl ester] gave an IC50 of 4.84 µM.
In the case of `O=c1c2ccccc2sn1-c1cc(S(=O)(=O)N2CCOCC2)ccc1N1CCOCC1` [2-(2-morpholin-4-yl-5-morpholin-4-ylsulfonyl-phenyl)-1,2-benzothiazol-3-one], the IC50 is reported as 0.579 µM.
For `COc1cc(-c2nn3c(Cc4ccccc4)nnc3s2)cc(OC)c1OC` [3-(phenylmethyl)-6-(3,4,5-trimethoxyphenyl)-[1,2,4]triazolo[3,4-b][1,3,4]thiadiazole], the IC50 was 4.78 µM.
For `CCCCCn1c(=O)c(C(=O)NCc2ccncc2)c(O)c2ccccc21` [1-amyl-2-hydroxy-4-keto-N-(4-pyridylmethyl)quinoline-3-carboxamide], the IC50 was 7.42 µM.
Work on `N#Cc1c(NC(=O)CN2CCN(S(=O)(=O)c3ccc4c(c3)OCCO4)CC2)sc2c1CCC2` [MLS000053165] yielded an IC50 of 3.48 µM.
`CC(C)c1nnc(NC(=O)c2c(O)n3c4c(cccc4c2=O)CCC3)s1` [1-Hydroxy-3-oxo-6,7-dihydro-3H,5H-pyrido[3,2,1-ij]quinoline-2-carboxylic acid (5-isopropyl-[1,3,4]thiadiazol-2-yl)-amide] gave an IC50 of 14.9 µM.
Molecule `c1ccc2c(c1)nnn2Cc1nnc2sc(-c3ccc4c(c3)OCCO4)nn12` [1-{[6-(2,3-dihydro-1,4-benzodioxin-6-yl)[1,2,4]triazolo[3,4-b][1,3,4]thiadiazol-3-yl]methyl}-1H-1,2,3-benzotriazole] has an IC50 of 1.69 µM.
In the case of `Fc1ccc(-c2nnc3sc(-c4ccc5c(c4)OCO5)nn23)cc1` [6-(1,3-benzodioxol-5-yl)-3-(4-fluorophenyl)-[1,2,4]triazolo[3,4-b][1,3,4]thiadiazole], the IC50 is reported as 3.92 µM.
`O=c1[nH]c(=O)n(-c2ccc(F)cc2)c(O)c1C=Nc1ccccc1N1CCCC1` [(5E)-1-(4-fluorophenyl)-5-[[2-(1-pyrrolidinyl)anilino]methylidene]-1,3-diazinane-2,4,6-trione] was tested, and the IC50 was 23.1 µM.
Work on `O=C(CSc1nc2ccccc2c2nc3ccccc3n12)NCc1ccco1` [2-(6-benzimidazolo[1,2-c]quinazolinylthio)-N-(2-furanylmethyl)acetamide] yielded an IC50 of 8.73 µM.
In the case of `O=c1c2ccccc2[se]n1-c1ccccc1` [2-Phenyl-benzo[d]isoselenazol-3-one], the IC50 is reported as > 50 µM.
`CC(=O)C(C(C)=O)c1c(Cl)c(O)c(O)c2c(C(=O)c3ccccc3)coc12` [3-(3-benzoyl-6-chloro-4,5-dihydroxy-1-benzofuran-7-yl)pentane-2,4-dione] gave an IC50 of 0.384 µM.
Molecule `CC1=C(SCCC#N)S/C(=C2\SC(C)=C(SCCC#N)S2)S1` [SMR000011057] has an IC50 of 2.8 µM.
